Assay results published in ChEMBL document CHEMBL1201862, “PubChem BioAssay data set” (2004).
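Results reflect a 48-hour exposure of cells in 96-well plates to compound at five concentrations. GI50 = concentration required for 50% inhibition of growth.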 Activity calls are given as the source filed them. No stated cut-off is given here; in the data, active = GI50 up to about 1.1 µM and inactive = higher.

Tests used:
Assay in all cases: NCI anticancer screen, dose series, 48 h
SNB-75 = tested on: SNB-75
KM12 = tested on: KM12
UACC-257 = tested on: UACC-257
Malme-3M = tested on: Malme-3M
COLO 205 = tested on: COLO 205
HCT-15 = tested on: HCT-15
SN12C = tested on: SN12C
SF-268 = tested on: SF-268
IGROV-1 = tested on: IGROV-1
ACHN = tested on: ACHN
NCI-H226 = tested on: NCI-H226
SK-OV-3 = tested on: SK-OV-3
SF-539 = tested on: SF-539
T47D = tested on: T47D
OVCAR-4 = tested on: OVCAR-4
HOP-62 = tested on: HOP-62
UACC-62 = tested on: UACC-62
M14 = tested on: M14
MCF7 = tested on: MCF7

Compound | GI50 (SNB-75) | GI50 (KM12) | GI50 (UACC-257) | GI50 (Malme-3M) | GI50 (COLO 205) | GI50 (HCT-15) [µM] | GI50 (SN12C) | GI50 (SF-268) | GI50 (IGROV-1) | GI50 (ACHN) | GI50 (NCI-H226) | GI50 (SK-OV-3) | GI50 (SF-539) | GI50 (T47D) | GI50 (OVCAR-4) | GI50 (HOP-62) | GI50 (UACC-62) | GI50 (M14) | GI50 (MCF7)
O=C1C(=O)N(c2cccc(C(F)(F)F)c2)C(=S)N1c1ccccc1 | 34.5 µM (inactive) | 31.4 µM (inactive) | 25.8 µM (inactive) | 31.8 µM (inactive) | 16.4 µM (inactive) | 19.1 | 34.4 µM (inactive) | 43.9 µM (inactive) | 22.4 µM (inactive) | 16.4 µM (inactive) | 24.5 µM (inactive) | 19.3 µM (inactive) | 26.1 µM (inactive) | 25.4 µM (inactive) | 41.1 µM (inactive) | 34.2 µM (inactive) | 14.9 µM (inactive) |  | 
CC(=O)Nc1cc2cc(NS(=O)(=O)c3ccc(Cl)c(Cl)c3)ccc2oc1=O |  | 25.1 µM (inactive) | > 100 µM (inactive) |  | 25.5 µM (inactive) | 90.6 | 25.8 µM (inactive) | 26.2 µM (inactive) | 75.9 µM (inactive) | 42 µM (inactive) | 31.8 µM (inactive) |  | 25.1 µM (inactive) | 3.21 µM (inactive) | 30.3 µM (inactive) | 19.8 µM (inactive) | 24.4 µM (inactive) | 64.1 µM (inactive) | 21.2 µM (inactive)
O=C(c1ccccc1)N1CCC(CC2(c3cc4ccccc4[nH]3)OCCO2)CC1 | 47.1 µM (inactive) | 34.2 µM (inactive) | 27.5 µM (inactive) |  | 21.2 µM (inactive) | 32.4 | > 100 µM (inactive) | 51.8 µM (inactive) | 42.2 µM (inactive) | 65.8 µM (inactive) | 32.7 µM (inactive) | 56.8 µM (inactive) | 37.7 µM (inactive) | 41.4 µM (inactive) | 47.3 µM (inactive) | 58.1 µM (inactive) | 19 µM (inactive) | 18.5 µM (inactive) | 19.4 µM (inactive)
N=c1c2c(-c3ccccc3)c[nH]c2ncn1N | > 100 µM (inactive) | > 100 µM (inactive) | > 100 µM (inactive) |  | > 100 µM (inactive) | > 100 | > 100 µM (inactive) |  | > 100 µM (inactive) | > 100 µM (inactive) | > 100 µM (inactive) | > 100 µM (inactive) | > 100 µM (inactive) | > 100 µM (inactive) | > 100 µM (inactive) | > 100 µM (inactive) | > 100 µM (inactive) | > 100 µM (inactive) | > 100 µM (inactive)
[N-]=[N+]=Nc1c(C=O)c(=O)n(-c2ccccc2)c2ccccc12 | 24.8 µM (inactive) | 54.5 µM (inactive) | 22.9 µM (inactive) | 15.6 µM (inactive) | 13.5 µM (inactive) | 18.4 | 42.3 µM (inactive) | 47.8 µM (inactive) | 16.6 µM (inactive) | 19 µM (inactive) |  | 31.5 µM (inactive) | 73.5 µM (inactive) | 13.9 µM (inactive) | 16.7 µM (inactive) | 29.3 µM (inactive) | 15 µM (inactive) | 18 µM (inactive) | 27 µM (inactive)
O=c1c2cc(I)ccc2nc(Sc2ncccc2[N+](=O)[O-])n1Cc1ccccc1 | 7.08 µM (inactive) | 27.4 µM (inactive) | 23.2 µM (inactive) |  | 27.5 µM (inactive) | 19.3 | 20.6 µM (inactive) | 22.1 µM (inactive) | 13.7 µM (inactive) | 39.1 µM (inactive) | 22.3 µM (inactive) | 63.1 µM (inactive) | 32.2 µM (inactive) | 26.3 µM (inactive) | 33.3 µM (inactive) | 70 µM (inactive) | 21.2 µM (inactive) | 28.3 µM (inactive) | 18.3 µM (inactive)
CCOC(=O)c1ccc(NCC#CCN2CCOCC2)cc1 |  | > 100 µM (inactive) |  | > 100 µM (inactive) | 38 µM (inactive) | 62.4 | > 100 µM (inactive) | > 100 µM (inactive) | > 100 µM (inactive) | 46 µM (inactive) | 70.3 µM (inactive) | > 100 µM (inactive) | > 100 µM (inactive) | > 100 µM (inactive) | > 100 µM (inactive) | > 100 µM (inactive) | 34.8 µM (inactive) | 29.7 µM (inactive) | 66.4 µM (inactive)
SCc1ccc(CS)s1 | 68.5 µM (inactive) | > 100 µM (inactive) | > 100 µM (inactive) |  | > 100 µM (inactive) | > 100 | > 100 µM (inactive) | > 100 µM (inactive) | > 100 µM (inactive) |  |  | > 100 µM (inactive) | > 100 µM (inactive) | > 100 µM (inactive) | > 100 µM (inactive) | > 100 µM (inactive) | > 100 µM (inactive) | > 100 µM (inactive) | > 100 µM (inactive)
CC1(C)CC[C@]2(C(=O)O)CC[C@]3(C)C(=CC[C@@H]4[C@@]5(C)C[C@H](O)[C@H](O)[C@@](C)(CO)C5=CC[C@]43C)[C@@H]2C1 | 32.1 µM (inactive) | 21.4 µM (inactive) | > 100 µM (inactive) | > 100 µM (inactive) | 22.5 µM (inactive) | 40.7 | 51.9 µM (inactive) | 43.1 µM (inactive) | 31.1 µM (inactive) | 34.8 µM (inactive) |  | > 100 µM (inactive) | > 100 µM (inactive) | 35.8 µM (inactive) | 31.4 µM (inactive) | > 100 µM (inactive) | > 100 µM (inactive) | > 100 µM (inactive) | 46.7 µM (inactive)
CSC12c3cc(C)n(-c4ccc([N+](=O)[O-])cc4)c3CC(C)(C)CN1C(=O)C2Oc1ccccc1 (stereo not given) | 10.6 µM (inactive) | 1.73 µM (inactive) | 70 µM (inactive) |  | > 100 µM (inactive) | > 100 | > 100 µM (inactive) |  | > 100 µM (inactive) | > 100 µM (inactive) | > 100 µM (inactive) |  | > 100 µM (inactive) | 32.7 µM (inactive) | 4.72 µM (inactive) | > 100 µM (inactive) | 22.2 µM (inactive) | > 100 µM (inactive) | 28.6 µM (inactive)
OC[C@@H](O)[C@H](O)[C@H](O)[C@@H](O)C1SCCCS1 | > 100 µM (inactive) | > 100 µM (inactive) | > 100 µM (inactive) |  | > 100 µM (inactive) | > 100 | > 100 µM (inactive) | > 100 µM (inactive) | > 100 µM (inactive) | > 100 µM (inactive) | > 100 µM (inactive) | > 100 µM (inactive) | > 100 µM (inactive) | > 100 µM (inactive) | > 100 µM (inactive) | > 100 µM (inactive) | > 100 µM (inactive) | > 100 µM (inactive) | > 100 µM (inactive)
CN(C)c1ccc(/N=N/c2ccc3[nH]cnc3c2)cc1 | 31.6 µM (inactive) | 29.2 µM (inactive) | 23 µM (inactive) | 25.2 µM (inactive) | 19.3 µM (inactive) | 22.1 | 22 µM (inactive) | 20.6 µM (inactive) | 34.5 µM (inactive) | 19 µM (inactive) | 34 µM (inactive) | > 10 µM (inactive) | 17.8 µM (inactive) | 29.5 µM (inactive) | 24.2 µM (inactive) |  | 24.8 µM (inactive) | 21.4 µM (inactive) | 
CCSc1nnc2c(-c3ccccc3)n[nH]c2n1 | 27.2 µM (inactive) | > 100 µM (inactive) | > 100 µM (inactive) |  | > 100 µM (inactive) | > 100 |  | 49.1 µM (inactive) | > 100 µM (inactive) | > 100 µM (inactive) | > 100 µM (inactive) | 44.3 µM (inactive) | 90.8 µM (inactive) | > 100 µM (inactive) | > 100 µM (inactive) | 59.8 µM (inactive) | > 100 µM (inactive) | > 100 µM (inactive) | > 100 µM (inactive)
COc1ccc(C2=CC(C(C)=C(C(N)=O)C(N)=O)C=C(c3ccc(Br)cc3)C2)c(OC)c1 (stereo not given) | 66.1 µM (inactive) | > 100 µM (inactive) | > 100 µM (inactive) |  | > 100 µM (inactive) | > 100 | > 100 µM (inactive) | > 100 µM (inactive) | 94.6 µM (inactive) | > 100 µM (inactive) | > 100 µM (inactive) | > 100 µM (inactive) |  | 39.1 µM (inactive) | > 100 µM (inactive) | > 100 µM (inactive) | > 100 µM (inactive) | > 100 µM (inactive) | > 100 µM (inactive)
Oc1ccc(/C=C/c2ccc3cccc(O)c3n2)cc1O | 4.74 µM (inactive) | 5.45 µM (inactive) | 10.5 µM (inactive) |  | 14.3 µM (inactive) | 3.29 | 2.94 µM (inactive) | 6.5 µM (inactive) | 1.44 µM (inactive) | 3.42 µM (inactive) |  | 23.7 µM (inactive) | 3.13 µM (inactive) | 1.75 µM (inactive) | 7.5 µM (inactive) | 13.1 µM (inactive) | 4.79 µM (inactive) | 2.69 µM (inactive) | 2.42 µM (inactive)
CN1CCN(c2ccc3nc(C4=C(O)C(=O)c5c(nc(CO)n5C)C4=O)[nH]c3n2)CC1 | 24.6 µM (inactive) | > 100 µM (inactive) | > 100 µM (inactive) | > 100 µM (inactive) | > 100 µM (inactive) | > 100 | > 100 µM (inactive) | > 100 µM (inactive) | > 100 µM (inactive) | > 100 µM (inactive) | > 100 µM (inactive) | > 100 µM (inactive) | 20.9 µM (inactive) | 61.4 µM (inactive) | > 100 µM (inactive) | > 100 µM (inactive) | 74.3 µM (inactive) | > 100 µM (inactive) | 
